The target in data set [1] is T1, Human-derived ACLY protein (Homo sapiens, UniProt P53396).
T1 construct: purchased Beijing Yiqiao Shenzhou Technology Co., Ltd 11769-H07B
T1 sequence (P53396 1-1101): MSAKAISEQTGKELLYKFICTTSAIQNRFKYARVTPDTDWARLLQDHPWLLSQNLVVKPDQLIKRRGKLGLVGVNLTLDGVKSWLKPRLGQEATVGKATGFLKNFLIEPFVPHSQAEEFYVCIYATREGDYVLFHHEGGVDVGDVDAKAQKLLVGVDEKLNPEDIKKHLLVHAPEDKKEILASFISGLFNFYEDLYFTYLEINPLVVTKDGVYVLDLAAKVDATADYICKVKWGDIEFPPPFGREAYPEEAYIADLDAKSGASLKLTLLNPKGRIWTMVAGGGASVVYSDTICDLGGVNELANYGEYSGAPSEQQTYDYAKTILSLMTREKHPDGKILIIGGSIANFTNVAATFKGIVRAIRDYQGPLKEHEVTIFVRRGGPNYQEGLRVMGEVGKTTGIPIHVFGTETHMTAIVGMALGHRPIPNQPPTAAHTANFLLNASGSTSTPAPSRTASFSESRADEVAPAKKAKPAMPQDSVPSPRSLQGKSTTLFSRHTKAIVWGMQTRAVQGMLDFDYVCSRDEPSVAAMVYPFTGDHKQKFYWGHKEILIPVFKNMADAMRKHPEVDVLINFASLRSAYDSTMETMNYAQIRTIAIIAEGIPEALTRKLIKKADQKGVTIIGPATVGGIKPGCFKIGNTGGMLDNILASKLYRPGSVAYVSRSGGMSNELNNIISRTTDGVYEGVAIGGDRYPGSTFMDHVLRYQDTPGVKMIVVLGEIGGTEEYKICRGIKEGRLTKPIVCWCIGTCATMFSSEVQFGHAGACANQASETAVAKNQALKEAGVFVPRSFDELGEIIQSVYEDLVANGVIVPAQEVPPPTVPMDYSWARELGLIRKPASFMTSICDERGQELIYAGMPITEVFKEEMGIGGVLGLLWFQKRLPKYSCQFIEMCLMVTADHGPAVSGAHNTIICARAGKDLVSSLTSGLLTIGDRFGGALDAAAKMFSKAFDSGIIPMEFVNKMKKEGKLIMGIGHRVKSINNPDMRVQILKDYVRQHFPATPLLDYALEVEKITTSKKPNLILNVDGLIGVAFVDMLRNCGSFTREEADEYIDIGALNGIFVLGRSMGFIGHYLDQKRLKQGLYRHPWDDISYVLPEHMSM
The data set can be described thus: ACLY citrate cleavage enzyme inhibition, ADP-Glo assay. The note with it: 25 nM enzyme, 30 min, 37° C., read-out: IC50 for inhibition of ACLY enzyme activity (mean ± SD). Type of data set: biochemical. An excerpt: The ACLY-catalyzed citric acid cleavage process requires the consumption of one molecule of ATP to activate citric acid. Based on this reaction principle, the inventors utilized an ADP-Glo assay kit to detect the amount of ATP converted to ADP in response to the catalytic activity of ACLY. After the establishment of the activity measurement system and optimization of the reaction conditions, the inventors evaluated the ACLY inhibitory activity of the obtained novel ACLY small molecule inhibitors.
Activity test protocol: Human-derived ACLY protein was purchased from Beijing Yiqiao Shenzhou Technology Co., Ltd (Item No. 11769-H07B), and ADP-Glo assay kit was purchased from Promega (Item No. V9102). The total volume of the reaction was 5 μL, which consisted of a mixture of three parts: 1 μL of 2% DMSO, 2 μL of the substrate mixture, and 2 μL of the enzyme (final concentration of 25 nM). Then 1 μL of different concentrations of compounds were added for incubation. Reaction conditions: 30 min, 37° C. Then 2.5 μL of ADP Reagent from ADP-Glo Kit was used, mixed well and reacted for 2 h. 5 μL of ADP Detection was added, centrifuged and mixed well. Then the full wavelength value was read from Envision multifunctional plate reader.
Results: Firstly, the cumulative amount of fluorescence intensity of the enzyme in 30 min reaction time (RFU/min) was calculated to represent the initial velocity of the enzyme, and then the ratio of the enzyme's velocity with the addition of compounds (vsample) to the enzyme's velocity without the addition of compounds (vDMSO) was calculated to be the percentage of activity for each concentration group of the samples (Activity rate %), with the formula: % Activity=(V(sample)/(v(DMSO))×100%. The logarithmic value of the concentration was plotted against the activity percentage, and then a non-linear regression was used to calculate the fitted curve. The software GraphPad Prism 8.0 (formula log (inhibitor) vs. response—Variable slope) was used to fit the curve and calculate the IC50 value, and the results are shown in the table below.

The subject of data set [2] is primary mouse hepatocytes. The data set can be described thus: Inhibition of de novo lipid synthesis in primary hepatocytes, [1,2-14C]-sodium acetate tracer. The data set is classed as cell-based. The note with it: Hepatocyte, compound 12.5 μM, 4 h, [1,2-14C]-acetate, read-out: Lipid synthesis inhibition (%) (mean ± SD). How it is done: Primary hepatic cell isolation and walling: the mouse liver was lavaged by calcium-free perfusate, then digested using collagenase and mouse primary hepatocytes were obtained by density gradient centrifugation, and were inoculated in 6-well plates at a density of 3×10^5/ml (0.2% gelatin was coated before inoculating). After inoculating, the cells were cultured and adhered for 6 h. The medium was changed to serum-free LG-DMEM (containing 2× double antibody) and starved the cells overnight.
Isotope tracing: the next day, the medium was switched to serum-free LG-DMEM containing 10 nM insulin and the corresponding concentration of compounds (1950 μL, 4 replicate wells per group); 0.1 μCi of [1,2-^14C]-acetate serum-free medium was added to each well, and the plates were then incubated for 4 h in the incubator.
Lipid saponification: Add 1.6 mL of ice PBS to each well for washing 3 times, shake the plate to dry and add 600 μL of 0.5 M KOH to each well to lysis for 1 h. Pipette 480 μL into a glass test tube with 400 μL of 20% KOH (methanol was used as solvent), shake and mix well, and then place it in a water bath at 95° C. to saponify for 3 h. The remaining lysate was used for the determination of the concentration of proteins. Add 400 μL of petroleum ether to each tube, pipette 5-6 times and centrifuge at 2500 rpm for 5 min, take 350 μL of the upper layer of the clear solution to the EP tube, and then add 400 μL of petroleum ether to repeat the extraction for 2 times (a total of 3 times). After complete transfer of the supernatant, 200 μL of water and 400 μL of 5N sulfuric acid were added to each tube for acidification, and the mixture was shaken and mixed. Add 400 μL of petroleum ether to each tube, pipette 5-6 times and centrifuge at 2500 rpm for 5 min, take 350 μL of the upper layer of the clear solution to the EP tube, then add 400 μL of petroleum ether and repeat the extraction for 2 times (a total of 3 times). Place in a fume hood and evaporate the petroleum ether overnight.
Isotope participation quantification: 1700 μL of scintillation solution was added to each tube and read.
Data processing and analysis: Firstly, the isotopic reference (R control, unit: CCPM/mg protein) of free fatty acids and cholesterol was calculated for the Control group of untreated mouse primary hepatocytes within 4 hours, which represented the basal synthesis. The percent inhibition of lipid synthesis was then calculated for each concentration group of the sample.

In data set [3] the test system is golden hamster. The data set is described as follows: High-fat and high-cholesterol diet-induced hyperlipidemia model of golden hamster. The note with it: for serum LDL cholesterol / serum total cholesterol: 1 time/day, 7 days, vs control group. The data set is classed as in vivo. From the text:
Dosing regimen: The hyperlipidemia model of golden hamster is recognized as one of the ideal animal models for studying hyperlipidemia drug therapy (pharmacodynamic evaluation). In order to preliminarily investigate the existence of potential regulatory effects of the candidate compounds on hepatic lipid metabolism homeostasis, the high-fat and high-cholesterol diet-induced hyperlipidemia model of golden hamster was utilized for preliminary pharmacodynamic evaluation. The specific protocol was as follows. 56 golden hamsters, males, were modeled on high-fat and high-cholesterol diet (Research diet, item number C11953) for two weeks, and 8 golden hamsters were reserved as blank control group. Subsequently, group administration (7 groups, n=8) was performed, i.e., model control group, positive control ETC-1002 30 mg/kg group, compound A3 10 mg/kg and 30 mg/kg group, compound A4 10 mg/kg and 30 mg/kg group, and blank control group. The compounds in each group were configured with saline (0.9% NaCl) and administered at a frequency of 1 time/day for a 7-day dosing cycle.
Indicator test: The body weight and food intake of golden hamsters were closely monitored during the administration period. After 7 days of administration, blood was collected from the orbital region of each group (starved overnight for about 16 hours), centrifuged to obtain serum, and stored in cryopreservation, and then total cholesterol and LDL cholesterol were detected in the serum. The relative amount of the relevant indexes was calculated as follows: Relative amount (100%)=the amount in the administered group/the amount in the model control group*100%.

For data set [4], the system named is primary hepatocytes from WT mice. The data set can be described thus: De novo lipid synthesis in WT primary hepatocytes, [14C]-citric acid tracer. Type of data set: cell-based. The note with it: WT mouse hepatocytes, [14C]-citric acid substrate.
Data set [5] relates to ACLY knockdown primary hepatocytes. The data set is described as follows: De novo lipid synthesis in ACLY knockdown primary hepatocytes, [14C]-citric acid tracer. Type of data set: cell-based, mouse. The note with it: [14C]-citric acid substrate. An excerpt:
Test protocol: In order to further investigate the dependence of the inhibitory effect of the series of compounds on de novo lipid synthesis on ACLY, the inventors chose ACLY knockdown primary hepatocytes for further evaluation of de novo lipid synthesis, while compound ETC-1002 was used as a positive control. Specifically, the experimental protocol was as above, and 0.1 μCi/well [^14C]-citric acid was used for tracing.

A short description of data set [6]: Oral pharmacokinetics in ICR mice. The data set is classed as in vivo, mouse. The note with it: male, mouse, ICR mice, oral, 30 mg/kg, plasma. How it is done:
Dosing regimen: 6 normal ICR mice, male, were divided into 2 groups (n=3), one group was orally given the positive control ETC-1002, and one group was orally given the tested compound A3, both administered at a dose of 30 mg/kg; blood was taken from the eye orbits at different time points before and after the administration of the drug, and the plasma drug concentration was detected.

[7] abbreviates: golden hamster, during administration.

As to `CC(C)(CCCC/C=C\CCCCC(C)(C)C(=O)O)C(=O)O` [Compound A2], the IC50 in data set [1] came to 105 ± 7.1 µM. Besides, the inhibition at 12.5 µM in data set [2] worked out at 80.9 ± 5.9%.
On to `CC(C)(CCCCC/C=C/CCCCCCC(C)(C)C(=O)O)C(=O)O` [Compound A7], for which, in data set [1], the IC50 came to 12 ± 2.2 µM.
As to `CC(C)(CCCCC/C=C/CCCCCC(C)(C)C(=O)O)C(=O)O` [Compound A5], the IC50 in data set [1] is 16.7 ± 1.8 µM. For the same molecule, the inhibition at 12.5 µM in data set [2] was 56.6 ± 7.6%.
`CC(C)(CCCCCC/C=C/CCCCCCC(C)(C)C(=O)O)C(=O)O` [Compound A9]: in data set [1], the IC50 worked out at 25.8 ± 9.2 µM. For the same molecule, the inhibition at 12.5 µM in data set [2] came to 30.9 ± 4.2%.
Taken in the same sequence, the figures for `CC(C)(CCCCCC1CC1CCCCC(C)(C)C(=O)O)C(=O)O` (stereo not shown) [Compound A12] were 56.9 ± 4.7 µM and 38.7 ± 11.4%.
In the case of `C/C(CCCCCC(C)(C)C(=O)O)=C(\C)CCCCC(C)(C)C(=O)O` [Compound A11], in data set [1], the IC50 amounted to 40.2 ± 2.9 µM.
For `CC(C)(CCCCCC/C=C\CCCCCCC(C)(C)C(=O)O)C(=O)O` [Compound A10], the IC50 in data set [1] turned out to be 9.6 ± 5.1 µM. Further, the inhibition at 12.5 µM in data set [2] stood at 21.1 ± 11.7%.
In the case of `CC(C)(CCCC/C=C\CCCCCC(C)(C)C(=O)O)C(=O)O` [Compound A4], the IC50 in data set [1] turned out to be 53.9 ± 13.8 µM. Also, the inhibition at 12.5 µM in data set [2] is 78.2 ± 4.3%. Also, in data set [3] (10 mg/kg), the “serum LDL cholesterol” value was “did not change significantly” and the serum total cholesterol result is given as “did not change significantly”. Further, in data set [3] (30 mg/kg), the “serum LDL cholesterol” value is reported as “significantly reduce” and the serum total cholesterol result was “significantly reduce”. Besides, in data set [3] (setting [7]), the body weight result was “significant decrease”, the food intake result is “significant decrease” and the tolerance observation entry is reported as “intolerance phenomena such as slowed activity”.
On to `CC(C)(CCCC/C=C/CCCCC(C)(C)C(=O)O)C(=O)O` [Compound A1], for which the IC50 in data set [1] amounted to 42.3 ± 6.5 µM.
As for `CC(C)(CCCCCC(O)CCCCCC(C)(C)C(=O)O)C(=O)O` [ETC-1002, Bempedoic acid, reference compound], the inhibition at 12.5 µM in data set [2] is 46.3 ± 15.3%. In addition, the “de novo synthesis of triglycerides” value in data set [4] (FIG. 1 A) is on record as “significantly inhibited”. Further, the “de novo synthesis of cholesterol” value in data set [4] (FIG. 1 B) was “significantly inhibited”. Besides, in data set [5], the “inhibitory effect on de novo synthesis of cholesterol” value is “significantly attenuated or even the inhibitory effect was not manifested” and the “inhibitory effect on de novo synthesis of triglycerides” value is given as “significantly attenuated or even the inhibitory effect was not manifested”. In data set [6], the AUC(0-inf) turned out to be 15600 ng·h/mL, the AUC(0-t) amounted to 14400 ng·h/mL, the highest level (Cmax) was 3810 ng/mL and the Tmax is 0.25 h. The half-life in data set [6] is 4.45 h. In addition, in data set [6] (read-out: MRT0-∞), the MRT inf was 6.81 h.
On to `CC(C)(CCCCC/C=C\CCCCCCC(C)(C)C(=O)O)C(=O)O` [Compound A8], for which, in data set [1], the concentration for half-maximal inhibition (IC50) worked out at 21.3 ± 9.7 µM. Besides, the inhibition at 12.5 µM in data set [2] is 21.6 ± 1.3%.
Take `CC(C)(CCCCC/C=C\CCCCCC(C)(C)C(=O)O)C(=O)O` [Compound A6]: the concentration for half-maximal inhibition (IC50) in data set [1] came out at 25.5 ± 6.8 µM. The inhibition at 12.5 µM in data set [2] came out at 68.7 ± 20.9%.

Values taken from patent US20250144127A1, “LONG-CHAIN COMPOUND AND USE THEREOF” (Burgeon Therapeutics Co., Ltd., priority 2021, published 2025).
